Laboratory results published in paper PMC12797170, “Potent Competitive Inhibitors of Ecto-5′-nucleotidase (CD73) based on 6‑(Het)aryl-7-deazapurine Ribonucleoside 5′‑O‑Bisphosphonates” (ACS Pharmacology & Translational Science, 2025).
In brackets after ≈: the same amount, converted by molar mass.

What was measured:
[1] = biological target: T1, recombinant human CD73 (hCD73) (Homo sapiens, UniProt P21589); assay: CD73 activity assay on recombinant human CD73; type: biochemical; settings: ΔGexp = RT ln Ki
T1 sequence (P21589 27-574): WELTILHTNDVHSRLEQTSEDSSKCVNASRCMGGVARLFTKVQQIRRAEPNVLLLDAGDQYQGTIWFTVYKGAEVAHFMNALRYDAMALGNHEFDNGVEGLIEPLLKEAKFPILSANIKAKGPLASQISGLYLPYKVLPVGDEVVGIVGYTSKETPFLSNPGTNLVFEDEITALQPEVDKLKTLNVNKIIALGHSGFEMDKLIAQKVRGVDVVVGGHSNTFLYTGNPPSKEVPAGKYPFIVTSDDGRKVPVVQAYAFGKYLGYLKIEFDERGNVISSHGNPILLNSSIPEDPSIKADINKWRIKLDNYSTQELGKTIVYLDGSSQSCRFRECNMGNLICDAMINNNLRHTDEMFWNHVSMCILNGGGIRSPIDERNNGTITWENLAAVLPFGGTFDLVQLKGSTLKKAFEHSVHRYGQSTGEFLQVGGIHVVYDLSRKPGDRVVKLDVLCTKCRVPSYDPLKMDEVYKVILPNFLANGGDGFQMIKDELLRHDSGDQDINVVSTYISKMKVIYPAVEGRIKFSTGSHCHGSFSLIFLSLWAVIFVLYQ

[2] = Plasma protein binding, equilibrium dialysis, human plasma; type: in vitro ADME; settings: undiluted plasma, human plasma protein binding, read-out: PPB (hu) (converted)
Protocol: (§1) Plasma protein binding of the investigated compounds was determined using equilibrium dialysis in single-use Rapid Equilibrium Dialysis devices with an 8 kDa molecular weight cutoff (Thermo Fisher Scientific), following the manufacturer’s protocol. In brief, 50 μL of undiluted human plasma (Biowest), spiked with the test compound at a final concentration of 100 μM, was added to the sample chamber, while 300 μL of phosphate-buffered saline (PBS) was placed in the buffer chamber. Devices were incubated for 4 h at 37 °C with gentle shaking.
(§2) After dialysis, 7.5 μL aliquots from both the plasma and buffer chambers were transferred directly into wells of a 384-well plate. To equalize the matrices for downstream processing, 7.5 μL of PBS was added to each plasma aliquot, and 7.5 μL of plasma was added to each buffer aliquot. Proteins were precipitated by adding four volumes of ice-cold methanol to each well, followed by thorough mixing and incubation at – 20 °C for 30 min. Plates were then stored overnight at 8 °C. Prior to analysis, the plate was centrifuged at 2,000 × g for 20 min at 8 °C. […] The fraction of unbound compound was calculated using the following equations: %Free=c(bufferchamber)/c(plasmachamber)*100% %Bound=100%−%Free

[3] = Plasma protein binding, mouse plasma; type: in vitro ADME; settings: mouse, plasma, mouse plasma protein binding; read-out: PPB (m) (converted)
Protocol: as §1, §2

[4] = Kinetic solubility in PBS; type: physicochemical; settings: phosphate-buffered saline, pH 7.4, aqueous buffer, kinetic from dmso stock
Protocol: Test compounds were prepared as 10 mM stock solutions in DMSO and diluted in phosphate-buffered saline (PBS, pH 7.4) to a 100 μM solution, which was then aliquoted in duplicate. The duplicate samples were incubated in Multiscreen PCF Filter Plates (Merck Millipore) with sealed bottom at room temperature on a shaker for 2 h to allow equilibration. Following incubation, the samples were centrifuged into nonsterile, flat-bottom 96-well plates at 2,200 RCF for 12 min. Supernatants were then diluted 1:99 in a solution of 50% acetonitrile containing 0.1% DMSO. The diluted samples were transferred to 384-well Echo plates, which contained prespotted calibration standards prepared by Echo transfer of 10 mM and 1 mM DMSO stock solutions, resulting in calibration points ranging from 0.05 to 4 μM. Samples and standards were subsequently analyzed by Echo-MS.

[5] = Microsomal stability assay, human liver microsomes; type: in vitro ADME; settings: for Mics (hu) comp remaining 60 min: 10 μM; for microsomal CLint at 10 µM: pooled liver microsomes, pH 7.4, read-out: Mics (hu) CLint
[6] = Microsomal stability assay, mouse liver microsomes; type: in vitro ADME; settings: for Mics (m) comp remaining 60 min: 10 μM; for microsomal CLint at 10 µM: pooled liver microsomes, pH 7.4, read-out: Mics (m) CLint
CCRF-CEM = assay: In vitro cytotoxic activity; type: cell-based; settings: Homo sapiens
Protocol: (§3) All the compounds were also tested for their in vitro cytotoxic activity on a small panel of four cancer cell lines (CCRF-CEM, HepG2, HeLa S3, HL-60) and nonmalignant human dermal fibroblasts (NHDF).

HL-60 = assay: In vitro cytotoxic activity; type: cell-based; settings: Homo sapiens
Protocol: as §3

HeLa S3 = assay: In vitro cytotoxic activity; type: cell-based; settings: Homo sapiens
Protocol: as §3

HepG2 = assay: In vitro cytotoxic activity; type: cell-based; settings: Homo sapiens
Protocol: as §3

[7] = test system: nonmalignant human dermal fibroblasts (NHDF); assay: In vitro cytotoxic activity; type: cell-based
Protocol: as §3

in vitro [8] = settings: human, plasma
in vitro [9] = settings: mouse, plasma

Structure (SMILES)	dG_exp, experimental binding free energy [1]	fraction unbound at 4 h, 100 µM [2]	fraction unbound at 4 h, 100 µM [3]	solubility at 2 h [4] [µM]	Mics (hu) comp remaining 60 min [5] [%]	microsomal CLint at 10 µM [5] [µL/min/mg]	Mics (m) comp remaining 60 min [6] [%]	microsomal CLint at 10 µM [6] [µL/min/mg]	half-life at 10 µM (in vitro [8]) [h]	half-life at 10 µM (in vitro [9]) [h]	IC50 (CCRF-CEM) [µM]	IC50 (HL-60) [µM]	IC50 (HeLa S3) [µM]	IC50 (HepG2) [µM]	IC50 [7] [µM]
O=P(O)(O)CP(=O)(O)OC[C@H]1O[C@@H](n2ccc3c(-c4ccco4)nc(F)nc32)[C@H](O)[C@@H]1O [14D.1, [(5-{[2-Fluoro-4-(furan-2-yl)-7H-pyrrolo[2,3-d]pyrimidin-7-yl]-β-D-ribofuranosyl}oxy)phosphonomethyl]phosphonic Acid]	–13.4 kcal/mol	0.045	0.664	80 (≈ 39.5 µg/mL)	103	< 1	96	1	> 2	> 2	> 10	> 10	> 10	> 10	> 10
COc1ccc2cc(-c3nc(Cl)nc4c3ccn4[C@@H]3O[C@H](COP(=O)(O)CP(=O)(O)O)[C@@H](O)[C@H]3O)ccc2c1 [7B.35]	–15.4 kcal/mol	≤ 0.01	0.088	84 (≈ 50.4 µg/mL)	106	< 2	103	< 2	> 2	> 2	> 10	> 10	> 10	> 10	> 10
O=P(O)(O)CP(=O)(O)OC[C@H]1O[C@@H](n2ccc3c(-c4ccoc4)ncnc32)[C@H](O)[C@@H]1O [4A.2]	–12.5 kcal/mol	0.162	0.872	97 (≈ 46.1 µg/mL)	–	–	–	–	> 2	> 2	> 10	2.8	> 10	> 10	> 10

Continued, in another order:

dG_exp, experimental binding free energy [1]	fraction unbound at 4 h, 100 µM [2]	fraction unbound at 4 h, 100 µM [3]	solubility at 2 h [4] [µM]	Mics (hu) comp remaining 60 min [5] [%]	microsomal CLint at 10 µM [5] [µL/min/mg]	Mics (m) comp remaining 60 min [6] [%]	microsomal CLint at 10 µM [6] [µL/min/mg]	half-life at 10 µM (in vitro [8]) [h]	half-life at 10 µM (in vitro [9]) [h]	Structure (SMILES)	IC50 (CCRF-CEM) [µM]	IC50 (HL-60) [µM]	IC50 (HeLa S3) [µM]	IC50 (HepG2) [µM]	IC50 [7] [µM]
–13.9 kcal/mol	0.058	0.391	87 (≈ 47 µg/mL)	100	< 1	97	2	> 2	> 2	Nc1nc(-c2cc3ccccc3o2)c2ccn([C@@H]3O[C@H](COP(=O)(O)CP(=O)(O)O)[C@@H](O)[C@H]3O)c2n1 [11C.8]	> 10	> 10	> 10	> 10	> 10
–13.1 kcal/mol	0.081	0.535	76 (≈ 37.3 µg/mL)	–	–	–	–	> 2	> 2	O=P(O)(O)CP(=O)(O)OC[C@H]1O[C@@H](n2ccc3c(-c4cccs4)ncnc32)[C@H](O)[C@@H]1O [4A.3]	9.9	4.2	> 10	> 10	> 10
–12.9 kcal/mol	0.053	0.699	25 (≈ 11.9 µg/mL)	–	–	–	–	> 2	> 2	O=P(O)(O)CP(=O)(O)OC[C@H]1O[C@@H](n2ccc3c(-c4ccco4)ncnc32)[C@H](O)[C@@H]1O [4A.1, [(5-{[4-(Furan-2-yl)-7H-pyrrolo[2,3-d]pyrimidin-7-yl]-β-D-ribofuranosyl}oxy)phosphonomethyl]phosphonic Acid]	> 10	3.7	> 10	> 10	> 10
–12.6 kcal/mol	0.095	0.788	80 (≈ 38.8 µg/mL)	–	–	–	–	> 2	> 2	O=P(O)(O)CP(=O)(O)OC[C@H]1O[C@@H](n2ccc3c(-c4ccccc4)ncnc32)[C@H](O)[C@@H]1O [4A.5]	> 10	3.7	> 10	> 10	> 10
